Reference: patent publication US20100004333A1, “COMPOSITIONS AND METHODS FOR TREATING CARDIOVASCULAR DISORDERS” (priority 2004, published 2010)
Where two headings read alike, the source gives them in different places.

Legend:
[1] = system: aortic rings from rabbits; test: HOCl-induced endothelial dysfunction in aortic rings from rabbits fed supplemented diet; format: in vivo, New Zealand White rabbits; details: dietary 1% probucol, 0.2% DTBP or 0.02% BP, 4 weeks; for Relaxation to ACh of aortic rings after 400 μM HOCl: FIG. 6A; for Tissue cGMP of aortic rings after 400 μM HOCl and 1 μM ACh: FIG. 6B
Procedure: All other reagents were of the highest quality available. Buffers were routinely filtered, argon-flushed and stored at 4° C. prior to use. Solutions of HOCl were prepared freshly before use by diluting reagent HOCl (Aldrich) into phosphate buffer (250 mM, pH 7.0) and standardizing with ε235 nm˜100 M^−1cm^−1 (hypochlorous acid) and ε290 nm˜300 M^−1cm^−1 (hypochlorite), as described in Journal of Physical Chemistry 1966, 70:3798-3805. Animals: New Zealand White rabbits (2.5-3 kg) were obtained from a commercial farm (Wauchope, NSW Australia) and housed individually for the entire study period. […] Feed and water were provided ad libitum for a period of 4 weeks judged to be sufficient time for circulating drug levels to reach a maximum (data not shown). […] The local ethics committee approved the study. Vascular reactivity: Perfused rabbit aortas were harvested and vascular reactivity studies performed as described in Circulation 2003, 107:2031-2036. Briefly, within 2 h of isolation, ring segments ˜5 mm in length were mounted in a myobath system (World Precision Instruments, Sarasota, Fla.) containing 20 mL of Krebs solution aerated at 37° C. with 5% CO2(g), and the dilatory response of half maximally norepinephrine pre-constricted rings to incremental doses of ACh (10^−9-10^−5 mol/L) determined. Where indicated, reagent HOCl (final concentration 400 μM) was added to the Krebs solution and the rings incubated for 5 min prior to thorough washing, pre-constriction and assessment of vessel relaxation. In some studies rings were incubated with probucol or DTBP for 10 min, washed thoroughly and then exposed to HOCl prior to assessing endothelium-dependent relaxation. A maximum of three consecutive sequences of constriction/relaxation were performed for each ring. Preparation of Aortic Homogenates: Aortic Rings Used in the Vascular Function Studies were removed and immediately cut into small pieces, frozen in liquid nitrogen, and then pulverized and homogenized as described. An aliquot (50 μL) of homogenate was removed for protein determination (BCA assay, Sigma) and the remainder extracted into methanol/hexane (5:1, v/v), the resulting hexane fraction dried and the residue suspended in isopropanol for analysis of probucol and its oxidation products. For cGMP determinations, aortic segments were treated with vehicle (control) or HOCl (400 μM) before addition of 1 μM ACh in the presence of 200 μM 3-isobutyl-1-methylxanthine and measurement of cGMP in the homogenate using a kit (Cayman Chemical, Ann Arbor, Mich.). Probucol oxidation studies: Probucol is a highly lipophilic compound (partition coefficient between octanol and water=[…]) that readily distributes into lipoproteins. To mimic the biological situation, oxidation reactions were therefore performed with probucol (or DTBP) dissolved in hexane (2 mL) to which aliquots of HOCl were added to give the final concentrations indicated. The heterogeneous mixtures were shaken vigorously at 37° C. for 60 min, then placed on ice after adding 1 mL water, the hexane phase removed, dried under vacuum and resuspended in isopropanol (200 μL) for HPLC analyses (see below). The aqueous phase was analyzed for the content of sulfate anion (SO4^2−) by ion exchange chromatography (see below). Analytical analyses: Probucol, DTBP, BP and DPQ were analyzed by gradient reversed-phase HPLC and quantified by peak area comparison with authentic standards. Under the conditions used, BP, DTBP, probucol and DPQ eluted at 12.5, 19.2, 20.8 and 28.4 min, respectively. Other oxidation products resolved by this HPLC system were also quantified by peak area comparison, using analytically pure samples obtained from semi-preparative (LC-18, 20 mm×25 cm, 5 μm) fractionation of the reaction mixture. Isolated samples were dried under vacuum, re-dissolved to a known concentration and assessed for purity by analytical HPLC (LC-18, 4.6 mm×25 cm, 5 μm) in combination with mass spectrometry (see below). […]

[2] = system: heme oxygenase-1 (HO-1); test: Heme oxygenase-1 expression, mRNA and heme oxygenase activity in rabbit aorta after balloon injury; format: in vivo, rabbits; details: for Tissue levels of HO-1 mRNA / Heme oxygenase activity in aorta: 4 days after ABI; for Tissue levels of HO-1 mRNA: FIG. 16b; for Heme oxygenase activity in aorta: FIG. 16c; for HO-1 expression in the media of damaged aortas (immunohistochemistry): 4 days after balloon injury, FIG. 16a
[3] = design: species or system rabbits; details: rabbit, in vivo
Procedure: Rabbit aortic balloon-injury model. Four groups of male New Zealand White rabbits (1.8-2.2 kg, Merunga Farm, Coffs Harbour, Australia), matched for body weight and baseline plasma cholesterol, were fed 100 g per day of normal chow±1% probucol, 0.02% DTBP, or 0.02% BP (wt/wt) for up to nine weeks. Aortic balloon-injury (ABI) was carried out at the end of week three, resulting in complete endothelial denudation. Harvesting of aortas was done after a further 6 weeks (n=6 per group). Aortic lesion assessment was carried out at the 3rd pair of lumber arteries in NZW rabbits as described in Circulation 2003, 107:2031-2036. Statistics. Data are expressed as mean±SEM. One-way ANOVA and the student-Newman-Keul's test were used to evaluate differences between groups, with P<0.05 considered significant.
To control for probucol's cholesterol-lowering effect, the animals were matched for baseline plasma cholesterol, and fed them a limited amount (100 g/day) of standard diet±the respective drug.

[4] = system: apoE−/− mice; test: Atherosclerosis in apoE−/− mice: probucol versus DTBP versus BP, 5 months; format: in vivo; details: for Atherosclerosis (lesion size) at the arch and descending aorta: 1% probucol, 0.02% BP; for Macrophages lesion area (Mac-3+): FIG. 12a, f; for Plasma cholesterol: FIG. 12c; for Proliferating cells (PCNA+): FIG. 12g; for Aortic content of neutral lipids (cholesterylesters and triglycerides): FIG. 12d
Description: ApoE−/− mouse model. Four groups of male apoE−/− mice (8-10 weeks, Animal Resources Centre, Perth, Australia) were fed a high fat diet based on Harlan Teklad diet TD88137±1% (wt/wt) probucol (96% purity, a gift from AstraZeneca, Sweden), 0.02% DTBP, or 0.02% BP (Polysciences, Warrington, Pa.) for 5 months. Tissue harvesting and analyses were done as described in Examples 1 and 3, using 15 and 10 mice of each group for biochemical and histological analyses, respectively. Histology and immunohistochemistry. Aortic lesion assessment was carried out at four sites (sinus, arch, thoracic and abdominal aorta) as described in Example 1. Immediately adjacent sections were employed for immunohistochemistry, using Mac-3 (macrophages, dilution 1:200, DAKO), PCNA (cell proliferation, dilution 1:500, DAKO) and anti-rat HO-1 monoclonal antibody (dilution 1:50, Santa Cruz) with avidin-biotin-horseradish peroxidase for signal detection (Vectorstain Elite ABC Kit, Vector Laboratories). Apoptosis was assessed using the TUNEL assay kit (Roche) according to the manufacture's instructions. Digital images were taken for quantitative morphometric analysis. Mac-3^+ areas were determined using Adobe Photoshop V6.0 by tracing. Total cell profiles, TUNEL^+ and PCNA^+ cells were counted manually at high magnification (40× objective). A single operator using coded samples performed all analyses blinded. Heme oxygenase. Heme oxygenase activity was determined in microsomes prepared from homogenized aortic tissue and assessed by HPLC as described in Circulation 2004, 110: 1855-1860. Statistics. All data are expressed as mean±SEM. One-way ANOVA and the student-Newman-Keul's test were used to evaluate differences between groups, with P<0.05 considered significant.

CC(C)(C)c1cc(SSc2cc(C(C)(C)C)c(O)c(C(C)(C)C)c2)cc(C(C)(C)C)c1O [DTBP, 4,4′-dithiobis(2,6-di-tert-butyl-phenol)]
Relaxation to ACh of aortic rings after 400 μM HOCl [1]: preserved the vascular function of isolated rings to an extent comparable to that seen with probucol
Tissue cGMP of aortic rings after 400 μM HOCl and 1 μM ACh [1]: increase in tissue cGMP
Tissue levels of HO-1 mRNA [2]: significantly increased
Heme oxygenase activity in aorta [2]: significantly increased
HO-1 expression in the media of damaged aortas (immunohistochemistry) [2]: induced HO-1 expression
Total drug in the vessel wall ([3]; male, New Zealand White, 9 weeks): 235±64 pmol total drug per mg protein
Bioavailability relative to probucol [3]: greater bioavailability than probucol
Lesion size at the aortic root ([4]; 0.02% DTBP, 5 months, FIG. 12b): did not increase
Atherosclerosis (lesion size) at the arch and descending aorta ([4]; 0.02% DTBP, 5 months, FIG. 12b): significantly inhibited
HDL-cholesterol ([4]; apoE−/− mice, 0.02% DTBP, 5 months, FIG. 12h): does not lower HDL-cholesterol
Macrophages lesion area (Mac-3+) ([4]; apoE−/− mice, 5 months): significant decrease
Plasma cholesterol ([4]; apoE−/− mice, 5 months): did not increase medium lesion size at the aortic root (FIG. 12b) or affect plasma cholesterol
Proliferating cells (PCNA+) ([4]; apoE−/− mice, 5 months): significant decrease
Aortic content of neutral lipids (cholesterylesters and triglycerides) ([4]; apoE−/− mice, 5 months): decreased
Anti-atherosclerotic activity relative to probucol ([4]; judged from aortic drug concentration and lesion inhibition): greater anti-atherosclerotic activity than probucol

CC(C)(C)c1cc(-c2cc(C(C)(C)C)c(O)c(C(C)(C)C)c2)cc(C(C)(C)C)c1O [BP, 3,3′,5,5′-tetra-tert-butyl-4,4′-bisphenol]
Relaxation to ACh of aortic rings after 400 μM HOCl [1]: responded to HOCl indistinguishably from control
Tissue cGMP of aortic rings after 400 μM HOCl and 1 μM ACh [1]: ineffective
HO-1 expression in the media of damaged aortas (immunohistochemistry) [2]: but not BP, induced HO-1 expression
Total drug in the vessel wall [3]: 614±258 pmol total drug per mg protein
Atherosclerosis (lesion size) at the arch and descending aorta ([4]; 0.02% DTBP, 5 months, FIG. 12b): failed
Macrophages lesion area (Mac-3+) ([4]; apoE−/− mice, 5 months): failed to affect
Plasma cholesterol ([4]; apoE−/− mice, 5 months): failed
Proliferating cells (PCNA+) ([4]; apoE−/− mice, 5 months): failed to affect

CC(C)(Sc1cc(C(C)(C)C)c(O)c(C(C)(C)C)c1)Sc1cc(C(C)(C)C)c(O)c(C(C)(C)C)c1 [probucol]
Relaxation to ACh of aortic rings after 400 μM HOCl [1]: retained responsiveness to ACh
Tissue cGMP of aortic rings after 400 μM HOCl and 1 μM ACh [1]: greater content of cGMP
Tissue levels of HO-1 mRNA [2]: significantly increased
Heme oxygenase activity in aorta [2]: significantly increased
HO-1 expression in the media of damaged aortas (immunohistochemistry) [2]: induced HO-1 expression
Total drug in the vessel wall [3]: 663±114 pmol total drug per mg protein
Atherosclerosis (lesion size) at the arch and descending aorta ([4]; 0.02% DTBP, 5 months, FIG. 12b): significantly inhibited
Macrophages lesion area (Mac-3+) ([4]; apoE−/− mice, 5 months): significant decrease
Proliferating cells (PCNA+) ([4]; apoE−/− mice, 5 months): significant decrease
Aortic content of neutral lipids (cholesterylesters and triglycerides) ([4]; apoE−/− mice, 5 months): decreased
